Here are results for ten compounds from ChEMBL document CHEMBL1201862, “PubChem BioAssay data set” (2004).

Test systems include NCI-H522; A498; BT-549; U-251; HT-29; SR; HL-60; 786-0; KM12; SK-OV-3; TK-10; SNB-75; SW-620; OVCAR-5; OVCAR-4; COLO 205; DU-145; SF-539; SNB-19; OVCAR-8.
Common to all, as to test: NCI anticancer screen, dose series, 48 h

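Method: 48-hour compound exposure of cells in 96-well plates, five concentrations, linear interpolation of endpoints. The concentration for 50% growth inhibition is given as GI50.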 The source made the active and inactive calls. Cut-off read from the data, not from the text of the source: active = GI50 up to about 1.1 µM and inactive = higher.

For `O=c1cc(/N=N\c2ccc(Cl)cc2)[nH]c(=O)[nH]1`, the GI50 in the assay with NCI-H522 is 1.71 µM (inactive); with A498, > 10 µM (inactive); in the assay on BT-549, 3.88 µM (inactive); in the assay on U-251 it was 4.81 µM (inactive); with HT-29, 2.35 µM (inactive); with SR, 1.2 µM (inactive). Also, the GI50 in the assay on HL-60 was 1.11 µM (active); with 786-0 it was 1.66 µM (inactive); with KM12, 5.27 µM (inactive); with SK-OV-3, 14.7 µM (inactive); with TK-10, 7.55 µM (inactive); in the assay on SNB-75, 14.5 µM (inactive). In addition, the GI50 in the assay on SW-620 is 2.33 µM (inactive); with OVCAR-5 it was 13.6 µM (inactive); in the assay with OVCAR-4, 4.42 µM (inactive); with COLO 205, 2.33 µM (inactive); in the assay with DU-145 it was 9.23 µM (inactive); in the assay on SF-539, 4.44 µM (inactive). Moreover, the GI50 in the assay on SNB-19 was 10.3 µM (inactive); in the assay on OVCAR-8 it was 5.68 µM (inactive).

In the case of `C/C(=N/NC(=S)N1CCCCC1)c1ccccc1O`, the GI50 with NCI-H522 is 26.5 µM (inactive); in the assay on A498, > 100 µM (inactive); in the assay with BT-549, > 100 µM (inactive); in the assay on U-251 it was > 31.6 µM (inactive); in the assay on HT-29 it was 23.1 µM (inactive); with SR, > 10 µM (inactive). Also, the GI50 is > 31.6 µM (inactive) in the assay with HL-60; > 31.6 µM (inactive) in the assay on 786-0; 26.1 µM (inactive) with KM12; > 31.6 µM (inactive) with SK-OV-3; > 31.6 µM (inactive) in the assay with TK-10; > 10 µM (inactive) in the assay with SNB-75. The GI50 with SW-620 is > 31.6 µM (inactive); with OVCAR-5 it was > 31.6 µM (inactive); in the assay with OVCAR-4 it was > 31.6 µM (inactive); in the assay with COLO 205 it was 23.4 µM (inactive); with DU-145, > 31.6 µM (inactive); with SF-539, > 100 µM (inactive). Besides, the GI50 in the assay with SNB-19 and with OVCAR-8 was > 31.6 µM (inactive) in each case.

For the compound `COc1cc(/C=C2\C[C@H]3[C@@H]4CC=C5C[C@@H](N6CCCC6)CC[C@]5(C)[C@H]4CC[C@]3(C)[C@H]2O)cc(OC)c1OC`, the GI50 in the assay on NCI-H522 was 13.4 µM (inactive); in the assay with A498, 16.6 µM (inactive); in the assay with BT-549 it was 16.1 µM (inactive); in the assay on U-251, 15.4 µM (inactive); in the assay with HT-29, 3.38 µM (inactive); in the assay with SR it was 2.63 µM (inactive). Moreover, the GI50 is 9.12 µM (inactive) with HL-60; 4.11 µM (inactive) in the assay on 786-0; 7.57 µM (inactive) in the assay with KM12; 18.6 µM (inactive) with SK-OV-3; 20.3 µM (inactive) in the assay on TK-10; 12.1 µM (inactive) in the assay on SNB-75. Also, the GI50 with SW-620 is 8.04 µM (inactive); with OVCAR-5 it was 8.79 µM (inactive); in the assay on OVCAR-4, 13.8 µM (inactive); in the assay with COLO 205, 14.8 µM (inactive); with DU-145, 16.8 µM (inactive); in the assay on SF-539, 16.3 µM (inactive). Also, the GI50 in the assay with SNB-19 is 18.8 µM (inactive); in the assay with OVCAR-8 it was 11 µM (inactive).

As for `COc1ccc2nc3cc([N+](=O)[O-])ccc3c(NNc3ccc(Cl)cc3)c2c1`, the GI50 in the assay with NCI-H522 was 22.6 µM (inactive); with A498 it was 0.073 µM (active); in the assay with BT-549, 29.9 µM (inactive); in the assay on U-251 it was 21.7 µM (inactive); with HT-29, 15.2 µM (inactive); with SR it was 12.5 µM (inactive). The GI50 in the assay with HL-60 was 23.1 µM (inactive); in the assay with 786-0, 17.9 µM (inactive); in the assay on KM12, 26.1 µM (inactive); in the assay with SK-OV-3 it was 80 µM (inactive); in the assay with TK-10, 1.9 µM (inactive); in the assay on SNB-75, 40.1 µM (inactive). The GI50 with SW-620 was 12.1 µM (inactive); with OVCAR-5 it was 2.31 µM (inactive); in the assay on OVCAR-4 it was 38.5 µM (inactive); in the assay with COLO 205, 12.6 µM (inactive); in the assay on DU-145, 38.9 µM (inactive); in the assay on SF-539, 37.8 µM (inactive). Moreover, the GI50 in the assay with SNB-19 is 75.7 µM (inactive); in the assay with OVCAR-8 it was 21.1 µM (inactive).

Consider `COC1(CC[C@@H](C)COC2OC(CO)C(O)C(O)C2O)O[C@H]2C[C@H]3[C@@H]4CC=C5C[C@@H](OC6OC(CO)C(O)C(OC7OC(CO)C(O)C(O)C7O)C6OC6OC(C)C(O)C(O)C6O)CC[C@]5(C)[C@H]4CC[C@]3(C)[C@H]2[C@@H]1C` (stereo not given in full), for which the GI50 in the assay with NCI-H522 is 4.62 µM (inactive); with A498, 12.9 µM (inactive); with BT-549 it was 16.5 µM (inactive); in the assay with U-251, 1.89 µM (inactive); in the assay with HT-29, 4.67 µM (inactive); in the assay on SR it was 23.5 µM (inactive). For the same compound, the GI50 in the assay with HL-60 was 6.19 µM (inactive); in the assay with 786-0, 2.75 µM (inactive); in the assay on KM12 it was 2.08 µM (inactive); in the assay on SK-OV-3, 4.01 µM (inactive); with TK-10, 19.3 µM (inactive); in the assay on SNB-75 it was 3.33 µM (inactive). Also, the GI50 in the assay with SW-620 was 2.6 µM (inactive); in the assay on OVCAR-5 it was 7.67 µM (inactive); in the assay with OVCAR-4 it was 9.91 µM (inactive); with COLO 205, 9.04 µM (inactive); in the assay with DU-145, 3.97 µM (inactive); in the assay on SF-539 it was 2.74 µM (inactive). In addition, the GI50 is 6.37 µM (inactive) in the assay with SNB-19 and 8.77 µM (inactive) in the assay with OVCAR-8.

Turning to `O=c1c2c(no[n+]2[O-])c2ccccc2n1-c1ccccc1`, the GI50 is 1.73 µM (inactive) with NCI-H522; 15.6 µM (inactive) with A498; 3.03 µM (inactive) in the assay with BT-549; 5.19 µM (inactive) in the assay with U-251; 4.89 µM (inactive) with HT-29; 2.82 µM (inactive) with SR. The GI50 with HL-60 was 2.12 µM (inactive); with 786-0, 2.89 µM (inactive); with KM12 it was 13.9 µM (inactive); with SK-OV-3, 14.6 µM (inactive); in the assay on TK-10, 17.3 µM (inactive); with SNB-75 it was 10 µM (inactive). In addition, the GI50 is 2.65 µM (inactive) with SW-620; 14.8 µM (inactive) with OVCAR-5; 6.18 µM (inactive) in the assay on OVCAR-4; 12.2 µM (inactive) with COLO 205; 20.4 µM (inactive) with DU-145; 8.26 µM (inactive) with SF-539. For the same compound, the GI50 with SNB-19 is 14.5 µM (inactive); in the assay with OVCAR-8 it was 6.18 µM (inactive).

As for `CC(C)CC(NC=O)C(=O)NC(Cc1ccccc1)NC(=O)CNC(=O)C(C)NC(=O)C(N)Cc1ccc(O)cc1` (stereo not given), the GI50 with NCI-H522 is > 100 µM (inactive); in the assay on A498 it was 64.6 µM (inactive); in the assay with BT-549, > 100 µM (inactive); with U-251 it was > 100 µM (inactive); in the assay with HT-29, > 100 µM (inactive); in the assay on SR, > 100 µM (inactive). The GI50 in the assay on HL-60, in the assay with 786-0, in the assay on KM12, in the assay on SK-OV-3, with TK-10 and in the assay on SNB-75 was > 100 µM (inactive) throughout. Further, the GI50 is > 100 µM (inactive) in the assay with SW-620; > 100 µM (inactive) in the assay with OVCAR-5; 91.8 µM (inactive) in the assay on OVCAR-4; > 100 µM (inactive) in the assay with COLO 205; > 100 µM (inactive) with DU-145; > 100 µM (inactive) with SF-539. Also, the GI50 in the assay on SNB-19 and in the assay with OVCAR-8 was > 100 µM (inactive) throughout.

As to `COc1ccc(CCN2COc3ccc4ccc(=O)oc4c3C2)cc1OC`, the GI50 in the assay on NCI-H522 is > 100 µM (inactive); in the assay with A498 it was > 100 µM (inactive); in the assay on BT-549, > 100 µM (inactive); in the assay on U-251, 88.9 µM (inactive); in the assay on HT-29 it was 78.5 µM (inactive); with SR it was 24.3 µM (inactive). Also, the GI50 in the assay on HL-60 was 19.1 µM (inactive); in the assay on 786-0 it was > 100 µM (inactive); in the assay with KM12, > 100 µM (inactive); with SK-OV-3, > 100 µM (inactive); in the assay with TK-10, > 100 µM (inactive); in the assay with SNB-75, > 100 µM (inactive). Also, the GI50 in the assay on SW-620 was 24.2 µM (inactive); in the assay on OVCAR-5 it was > 100 µM (inactive); with OVCAR-4 it was > 100 µM (inactive); in the assay with COLO 205 it was > 100 µM (inactive); in the assay on DU-145 it was > 100 µM (inactive); with SF-539 it was > 100 µM (inactive). The GI50 in the assay with SNB-19 and in the assay on OVCAR-8 was > 100 µM (inactive) in each case.

In the case of `Cc1[nH]n(-c2nc(O)c(-c3ccccc3)c(=O)[nH]2)c(=O)c1CCO`, the GI50 in the assay with NCI-H522, with A498, with BT-549, in the assay with U-251, with HT-29 and in the assay on SR was > 100 µM (inactive) each time. For the same compound, the GI50 is > 100 µM (inactive) with HL-60; > 100 µM (inactive) in the assay with 786-0; > 100 µM (inactive) in the assay on KM12; > 100 µM (inactive) in the assay with SK-OV-3; > 100 µM (inactive) with TK-10; 54.5 µM (inactive) in the assay with SNB-75. Also, the GI50 in the assay on SW-620, in the assay on OVCAR-5, in the assay on OVCAR-4, with COLO 205, with DU-145 and with SF-539 was > 100 µM (inactive) throughout. For the same compound, the GI50 in the assay with SNB-19 and with OVCAR-8 was > 100 µM (inactive) in each case.

With `CC(C)n1c2c([n+](C)c1/C=C/c1ccccc1)C(=O)c1ccccc1C2=O`, the GI50 is 0.0201 µM (active) in the assay with NCI-H522; 0.611 µM (active) in the assay with A498; 0.241 µM (active) with BT-549; 0.147 µM (active) with U-251; 0.0875 µM (active) with HT-29; 0.257 µM (active) in the assay with SR. The GI50 in the assay on HL-60 is 0.02 µM (active); with 786-0 it was 0.259 µM (active); in the assay on KM12, 0.132 µM (active); in the assay with SK-OV-3, 0.299 µM (active); in the assay with TK-10, 0.538 µM (active); in the assay with SNB-75, 0.419 µM (active). In addition, the GI50 in the assay with SW-620 is 0.0501 µM (active); with OVCAR-5, 0.501 µM (active); in the assay on OVCAR-4, 0.0278 µM (active); in the assay with COLO 205, < 0.01 µM (active); in the assay on DU-145, 0.34 µM (active); with SF-539, 0.0334 µM (active). In addition, the GI50 is 0.223 µM (active) with SNB-19 and 0.07 µM (active) with OVCAR-8.
